The assay addresses matrix metalloproteinase-3 (MMP-3) (Homo sapiens, UniProt P08254). In words: MMP-3 enzyme inhibition assay. It counts as biochemical.

Chain of matrix metalloproteinase-3 (MMP-3) (P08254 100-477): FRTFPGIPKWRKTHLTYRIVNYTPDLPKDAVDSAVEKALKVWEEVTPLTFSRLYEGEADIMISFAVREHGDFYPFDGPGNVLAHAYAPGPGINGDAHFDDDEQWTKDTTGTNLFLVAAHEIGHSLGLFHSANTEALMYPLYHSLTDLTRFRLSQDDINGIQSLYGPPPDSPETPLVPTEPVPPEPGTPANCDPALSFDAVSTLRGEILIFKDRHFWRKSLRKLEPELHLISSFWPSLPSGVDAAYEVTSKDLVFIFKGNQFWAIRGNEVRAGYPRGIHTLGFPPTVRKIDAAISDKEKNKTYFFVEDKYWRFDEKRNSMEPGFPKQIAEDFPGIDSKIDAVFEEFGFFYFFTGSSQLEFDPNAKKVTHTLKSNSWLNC

With berkeleypenostatin E [compound 5], half-maximal inhibition (IC50) required 50 µM.

In general, IC50 refers to the concentration that gives 50% inhibition.

For the origin of these results see paper PMC8574098 (Journal of natural products, 2021).
